Patent publication US20020045574A1, “Glycopeptide antibacterial compounds and methods of using same” (priority 2000, published 2002)

Key:
[1] = system: E. faecium RLA1; test: Strain antibiotic susceptibility phenotype (MIC interpretive standards); format: cell-based
Excerpt: (§1) The test panel currently includes eight enterococci and 13 staphylococci, which are selected based upon their antibiotic susceptibility profiles. The methicillin-sensitive Staphylococcus aureus (MSSA) strain MB2985 (Smith isolate) is used to assesses the potential for serum protein binding of the compounds. The paired Gram-negative strains ASP #49 (envA−) and ASP #50 (envA+) (M. Salvatore/N. Lee) are included to judge membrane effects. Table 1 presents a detailed description of the strains included in the panel, including some of the sources of the strains of bacteria.

[2] = system: E. faecium CL 5053 (VanA); test: as above; format: cell-based
Excerpt: as §1

[3] = system: E. faecalis CL 4877 (VanB); test: as above; format: cell-based
Excerpt: as §1

[4] = system: E. faecalis MB2864; test: as above; format: cell-based
Excerpt: as §1

[5] = system: E. faecium CL 5242 (VanA); test: as above; format: cell-based
Excerpt: as §1

[6] = system: E. faecalis CL 5244 (VanB); test: as above; format: cell-based
Excerpt: as §1

[7] = system: E. gallinarum CL 4886 (VanC); test: as above; format: cell-based
Excerpt: as §1

[8] = system: E. faecium CL 4931 (VanA); test: as above; format: cell-based
Excerpt: as §1

[9] = system: VISA/MRSA CL 5705; test: as above; format: cell-based, S. aureus; conditions: VISA/MRSA CL 5705 (Mu 3)
Excerpt: as §1

[10] = system: VISA/MRSA CL 5706; test: as above; format: cell-based, S. aureus; conditions: VISA/MRSA CL 5706 (Mu 50)
Excerpt: as §1

[11] = system: MRSA CL 3033; test: as above; format: cell-based, Staphylococcus aureus
Excerpt: as §1

[12] = system: MRSA COL; test: as above; format: cell-based, Staphylococcus aureus
Excerpt: as §1

[13] = system: MSSA MB2985; test: as above; format: cell-based, Staphylococcus aureus
Excerpt: as §1

[14] = system: MRCNS (S. epi.) CL 3069; test: as above; format: cell-based
Excerpt: as §1

[15] = system: MRCNS (S. haem.) CL 171; test: as above; format: cell-based
Excerpt: as §1

[16] = system: MRCNS (S. hom.) CL 546; test: as above; format: cell-based
Excerpt: as §1

[17] = system: MRCNS (S. haem.) CL 202; test: as above; format: cell-based
Excerpt: as §1

[18] = system: MRCNS (S. hom.) CL 227; test: as above; format: cell-based
Excerpt: as §1

[19] = system: methicillin-sensitive Staphylococcus aureus (MSSA) strain MB2985; conditions: due to binding of the antibiotic; cited from earlier work

For `CC1(C)S[C@@H]2[C@H](NC(=O)[C@H](N)c3ccccc3)C(=O)N2[C@H]1C(=O)O` [Amp, ampicillin], the “Phenotype Amp” value [1] was “R (≧16)”, the “Phenotype Amp” value [2] was “R (≧16)” and the “Phenotype Amp” value [3] was “S (≦8)”. For the same compound, the “Phenotype Amp” value [4] was “S (≦8)”, the “Phenotype Amp” value [5] was “R (≧16)” and the “Phenotype Amp” value [6] was “S (≦8)”. For the same compound, the “Phenotype Amp” value [7] was “S (≦8)”, the “Phenotype Amp” value [8] was “R (≧16)” and the “Phenotype Amp” value [9] was “R (≧0.5)”. The “Phenotype Amp” value [10] was “R (≧0.5)”, the “Phenotype Amp” value [11] was “R (≧0.5)” and the “Phenotype Amp” value [12] was “R (≧0.5)”. The “Phenotype Amp” value [13] was “S (≦0.25)”.
For `C[C@@H](O)[C@H]1C(=O)N2C(C(=O)O)=C(SCCN=CN)C[C@H]12` [Ipm, imipenem], the “Phenotype Ipm” value [14] was “R (≧16)”, the “Phenotype Ipm” value [15] was “R (≧16)” and the “Phenotype Ipm” value [16] was “R (≧16)”. For the same compound, the “Phenotype Ipm” value [17] was “R (≧16)”, the “Phenotype Ipm” value [18] was “R (≧16)” and the “Phenotype Ipm” value [9] was “R (≧16)”. For the same compound, the “Phenotype Ipm” value [10] was “R (≧16)”, the “Phenotype Ipm” value [11] was “R (≧16)” and the “Phenotype Ipm” value [12] was “R (≧16)”. The “Phenotype Ipm” value [13] was “S (≦4)”.
In the case of `CCSC1=C(C(=O)O)N2C(=O)[C@H]([C@@H](C)O)[C@H]2S1` [Schering 29482], the “activity in the presence of Human Serum Albumin or Fraction V” value [19] is listed as “reduced activity”.
With `CN[C@H](CC(C)C)C(=O)N[C@H]1C(=O)N[C@@H](CC(N)=O)C(=O)N[C@H]2C(=O)N[C@H]3C(=O)N[C@H](C(=O)N[C@H](C(=O)O)c4cc(O)cc(O)c4-c4cc3ccc4O)[C@H](O)c3ccc(c(Cl)c3)Oc3cc2cc(c3O[C@@H]2O[C@H](CO)[C@@H](O)[C@H](O)[C@H]2O[C@H]2C[C@](C)(N)[C@H](O)[C@H](C)O2)Oc2ccc(cc2Cl)[C@H]1O` [Van, vancomycin] the “Phenotype Van” value [14] was “S (≦4)”, the “Phenotype Van” value [1] was “S (≦4)” and the “Phenotype Van” value [15] was “S (≦4)”. The “Phenotype Van” value [2] was “R (≧32)”, the “Phenotype Van” value [3] was “R (≧32)” and the “Phenotype Van” value [4] was “S (≦4)”. The “Phenotype Van” value [16] was “S (≦4)”, the “Phenotype Van” value [17] was “S (≦4)” and the “Phenotype Van” value [5] was “R (≧32)”. The “Phenotype Van” value [6] was “R (≧32)”, the “Phenotype Van” value [18] was “S (≦4)” and the “Phenotype Van” value [7] was “I (8-16)”. For the same compound, the “Phenotype Van” value [8] was “R (≧32)”, the “Phenotype Van” value [9] was “S (≦4)” and the “Phenotype Van” value [10] was “I (8-16)”. The “Phenotype Van” value [11] was “S (≦4)”, the “Phenotype Van” value [12] was “S (≦4)” and the “Phenotype Van” value [13] was “S (≦4)”.
For gentamicin, the “Phenotype Gent” value [1] was “S (≦500)”, the “Phenotype Gent” value [2] was “R (>500)” and the “Phenotype Gent” value [3] was “R (>500)”. The “Phenotype Gent” value [4] was “S (≦500)”, the “Phenotype Gent” value [5] was “R (>500)” and the “Phenotype Gent” value [6] was “S (≦500)”. The “Phenotype Gent” value [7] was “R (>500)”, the “Phenotype Gent” value [8] was “R (>500)” and the “Phenotype Gent” value [9] was “R (≧16)”. For the same compound, the “Phenotype Gent” value [10] was “R (≧16)”, the “Phenotype Gent” value [12] was “S (≦4)” and the “Phenotype Gent” value [13] was “S (≦4)”.
